Source: US7531713B2, “Assay for toxin induced neuronal degeneration and viability in C. elegans” (Vanderbilt University, priority 2001, dated 2009)
“Also recorded” adds a separate entry of the source.

Legend:
ASI chemosensory neurons = experiment: 6-OHDA exposure of ASI chemosensory neurons with or without transferred DAT-1; format: in vivo, C. elegans
Description: FIGS. 6A, 6B, 6C & 6D. Transfer of the DAT gene product sensitizes non-DA neurons to 6-OHDA. (FIG. 6A), ASI chemosensory neurons made transgenic for a PDAF-7::GFP reporter to reveal these cells and their processes. (FIG. 6B), Worms in FIG. 6A treated with 6-OHDA. […] (FIG. 6C), A transgenic line where PDAF7::DAT1:GFP translational fusion is expressed in the ASI neurons, brining DAT-protein to these cells. (FIG. 6D), Animals in C, exposed to 6-OHDA.

C. elegans DA neurons = experiment: 6-OHDA assay: GFP signal in DA neurons of Pdat-1::GFP transgenic worms; format: in vivo; conditions: for Protection against 6-OHDA toxicity (GFP signal in DA neurons): coincubated with 6-OHDA, 10 mM test substance
Procedure: Synchronized cultures of nematodes were prepared by collecting gravid worms from one or two 100 mm 8P/NA22 plates, washing them 2 times in approximately 10 mls dH2O (2,000 rpm for 2 min), and incubating them in alkaline hypochlorite for 7-10 min. essentially as described (Emmons et al., 1979; Epstein and Shakes, 1995). Following the 17-24 hour incubation in M9 to obtain the synchronized L1's, the worms were washed once in 10 mls dH2O, spread on 8P/NA22 plates and incubated at 24° C. for 25-29 hours. The L3 larvae were collected, washed once or twice in dH2O, and added to the assay mix (to a final OD600 worms of 0.1-0.2) containing 10 mM ascorbic acid containing 10 or 50 mM 6-hydroxydopamine +/−10 mM d-amphetamine or 1 mM imipramine. The assay mix (1-2 mls) was incubated for 1 hour at 24° C., and mixed gently every 15 min. The worms were then washed in 0.5-1 ml dH2O as above and spread on NGM/OP50 plates. The worms were examined and scored 40-80 hours post-6-OHDA exposure on 2% agarose pads, using 2% NaN3 to immobilize them. For electron microscopy, the worms are fixed approximately 60 hours following exposure to 6-OHDA.
Scoring of the CEPs were performed by applying approximately 50-60 worms on the agar pad, and examined under a Zeiss M2 fluorescent dissecting scope. All 4 CEP dendrites were examined in each worm and the GFP fluorescence within the dendrites followed from the nerve ring to the tip of the nose. If any part of the dendrite was absent, the worm was considered to have altered CEPs. The DA neurons were examined in living animals using a Zeiss Axioskop with a planApo 40 and 63× objective and a Zeiss LSM410 confocal laser-scanning microscope.
Briefly, the worms are exposed to the neurotoxin (or any other candidate substance) dissolved in a liquid suspension prior to being replated on a solid plate.
Exposure to toxins is carried out by transferring the worms to a solution of water containing 10 mM Ascorbic Acid and 10-50 mM 6OHDA in a final volume of 600 μl. The worms are incubated for 1 hour at 22-24° C. with mixing in silica coated tubes. The exposing is stopped by dilution with 1 ml of water. The tube is then pulsed at 2000 rpm for 2 minutes, resuspended in water and the worms are spread on N6M plates ([…]) coated with OP50 E. coli, which the worms feed on.

CeDAT = target: T1, CeDAT (Caenorhabditis elegans, UniProt Q03614); conditions: mammalian cells expressing CeDAT, cited from earlier work; for Sensitivity of CeDAT-mediated DA transport to antagonists/substrates: potencies comparable to human DAT
T1 sequence (Q03614 1-615): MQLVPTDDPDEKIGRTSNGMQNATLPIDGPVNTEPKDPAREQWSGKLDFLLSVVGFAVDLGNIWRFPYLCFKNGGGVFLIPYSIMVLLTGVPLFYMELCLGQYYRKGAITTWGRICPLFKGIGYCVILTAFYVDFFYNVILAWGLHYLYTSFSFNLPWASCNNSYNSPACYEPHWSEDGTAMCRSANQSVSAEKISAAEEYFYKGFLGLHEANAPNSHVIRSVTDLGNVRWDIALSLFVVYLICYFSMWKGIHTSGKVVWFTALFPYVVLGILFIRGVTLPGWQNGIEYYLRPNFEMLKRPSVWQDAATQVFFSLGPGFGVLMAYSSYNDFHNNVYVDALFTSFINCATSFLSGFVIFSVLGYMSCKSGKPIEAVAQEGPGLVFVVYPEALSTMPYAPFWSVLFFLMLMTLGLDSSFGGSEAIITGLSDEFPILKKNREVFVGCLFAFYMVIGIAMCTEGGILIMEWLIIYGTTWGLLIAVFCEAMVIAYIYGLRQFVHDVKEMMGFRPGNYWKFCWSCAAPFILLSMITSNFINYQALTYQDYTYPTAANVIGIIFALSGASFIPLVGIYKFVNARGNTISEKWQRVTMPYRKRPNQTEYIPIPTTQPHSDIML

## NCCc1cc(O)c(O)cc1O [6-OHDA, 6-hydroxydopamine]
ASI chemosensory neurons; PDAF7::DAT1:GFP translational fusion line (FIG. 6D)
  Effect of 6-OHDA on ASI neurons expressing DAT-1: conferred 6-OHDA sensitivity
ASI chemosensory neurons; PDAF-7::GFP reporter line (FIG. 6B)
  Effect of 6-OHDA on ASI neurons lacking DAT-1: little or no effect
C. elegans DA neurons; 10 mM 6-OHDA for 1 hr, visualized 72 hrs later via confocal microscopy
  Effect of 6-OHDA on GFP signal in DA neurons: various stages of apparent degeneration are evident
C. elegans DA neurons; 10-50 mM 6-OHDA, 1 hour exposure, general statements
  Effect of 6-OHDA on DA neurons / reporter expression: selectively degraded; also recorded: loss of reporter expression
C. elegans DA neurons; dat-1 mutant line (FIG. 5E)
  Neuronal sensitivity to 6-OHDA as a function of time of exposure, dat-1 deletion strain: protected
C. elegans DA neurons; reporter transgenic line produced in a dat-1 deleted strain (FIG. 5D)
  Effect of 6-OHDA on GFP signal in dat-1 deleted strain: failure of toxin to effect loss of GFP signal
C. elegans DA neurons; wildtype reporter line, CEP neurons (FIG. 5E)
  Neuronal sensitivity to 6-OHDA as a function of time of exposure: time dependent loss of CEP neurons

## NCCc1ccc(O)c(O)c1 [DA, Dopamine]
CeDAT; read-out: Km of Na+- and Cl--dependent DA transport
  Km: 1.2 µM

## C[C@H](N)Cc1ccccc1 [amphetamine, d-amphetamine]
CeDAT
  Sensitivity of CeDAT-mediated DA transport to antagonists/substrates: sensitive
C. elegans DA neurons
  Protection against 6-OHDA toxicity (GFP signal in DA neurons): prevents visible evidence of 6-OHDA toxicity

## CN(C)CCCN1c2ccccc2CCc2ccccc21 [imipramine]
CeDAT
  Sensitivity of CeDAT-mediated DA transport to antagonists/substrates: inhibited
C. elegans DA neurons
  Protection against 6-OHDA toxicity (GFP signal in DA neurons): prevents visible evidence of 6-OHDA toxicity

## CNCCC(Oc1ccccc1OC)c1ccccc1 (stereo not shown) [nisoxetine]
CeDAT
  Sensitivity of CeDAT-mediated DA transport to antagonists/substrates: inhibited
